The record followed here is publication PMC4648260 (Chembiochem : a European journal of chemical biology, 2015).

SMILES strings stand for the structures.

Experiment [1] deals with T1, RhlR (Pseudomonas aeruginosa, UniProt P54292). It is filed as cell-based. As to conditions: for EC50: read-out: EC50 (RhlR agonism), E. coli reporter, dose-response 100 nM – 1 mM; for RhlR-agonistic selectivity over LasR and QscR: criterion: at least 2.5-fold more active in RhlR agonism assays than in LasR and QscR agonism assays at 100 μM.
T1 sequence (P54292 whole entry): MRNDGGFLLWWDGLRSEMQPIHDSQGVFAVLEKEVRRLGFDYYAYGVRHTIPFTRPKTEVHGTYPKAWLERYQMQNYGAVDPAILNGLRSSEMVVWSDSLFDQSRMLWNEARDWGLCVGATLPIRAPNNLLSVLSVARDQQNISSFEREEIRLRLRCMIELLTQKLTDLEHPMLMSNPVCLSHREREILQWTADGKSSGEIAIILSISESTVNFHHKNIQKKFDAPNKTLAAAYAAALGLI
The target in the next experiment is QscR (Pseudomonas aeruginosa, UniProt G3XD77). As to conditions: compound at 100 μM against 15 nM OdDHL; untreated culture set to 100%; error ±10%.
In another experiment the target is LasR (Pseudomonas aeruginosa, UniProt P25084). In words: LasR antagonism. It is filed as cell-based. As to conditions: compound at 100 μM against 2 nM OdDHL; untreated culture set to 100%; negative values indicate receptor agonism; error ±10%.
Sequence of LasR (P25084 whole entry): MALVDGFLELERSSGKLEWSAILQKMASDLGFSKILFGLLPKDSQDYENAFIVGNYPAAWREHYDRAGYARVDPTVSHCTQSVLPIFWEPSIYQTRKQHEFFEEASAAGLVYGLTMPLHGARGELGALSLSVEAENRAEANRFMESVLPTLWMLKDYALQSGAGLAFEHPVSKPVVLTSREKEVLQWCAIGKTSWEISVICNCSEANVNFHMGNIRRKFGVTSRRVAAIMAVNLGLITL
Experiment [2] has as its target T1, RhlR. Format: cell-based. As to conditions: E. coli reporter; for Inhibition (%) / % RhlR inhibition: compound at 100 μM in the presence of 10 μM BHL, untreated culture set to 100%, error ±10%, selected data reproduced from ref. [23].
Experiment [3] deals with T1, RhlR. Put plainly: RhlR agonism, P. aeruginosa GFP reporter strain PAO-JP2/prhlI-LVAgfp. It is filed as cell-based. As to conditions: compound at 100 μM in the presence of 100 nM OdDHL, 900 μM BHL set to 100% activation, error ±10%, selected data reproduced from ref. [23].
Experiment [4] deals with T1, RhlR. In words: RhlR antagonism. Format: cell-based.

For orientation: EC50 means the midpoint of the concentration-response curve. As for `CCCC(=O)N[C@H]1CCOC1=O` [BHL, N-butanoyl L-homoserine lactone, reference compound], the EC50 on RhlR [1] turned out to be 11.1 µM.

`O=C(Cc1ccccc1)N[C@@H]1CCOC1=O` [Compound B4]: the “% QscR inhibition” value on QscR is reported as 37%. Moreover, the “% LasR inhibition” value on LasR came out at 15%. The “Inhibition (%) / % RhlR inhibition” value on RhlR [2] is 66%.

Regarding `O=C(Cc1ccccc1)NC1CCOC1=O` (stereo not drawn) [Compound C1], at RhlR [3], the “% RhlR activation” value is on record as 53%. Moreover, at RhlR [1], the “RhlR-agonistic selectivity over LasR and QscR” value (from here on “RhlR-agonistic selectivity”) is “displayed selectivity”; the EC50 came out at 14.7 µM.

Regarding `O=C(Cc1ccc(F)cc1)NC1CCOC1=O` (stereo not drawn) [Compound C2], the “% RhlR activation” value at RhlR [3] was 28%. Further, on RhlR [1], the “RhlR-agonistic selectivity” value is listed as “displayed selectivity”; the EC50 is 9 µM.

For the compound `O=C(Cc1cccc(F)c1)NC1CCOC1=O` (stereo not drawn) [Compound C3], on RhlR [3], the “% RhlR activation” value stood at 28%. Besides, the “RhlR-agonistic selectivity” value on RhlR [1] is recorded as “displayed selectivity”.

Take `O=C(Cc1ccccc1F)N[C@H]1CCOC1=O` [Compound C4]: the “% RhlR activation” value at RhlR [3] was 24%. The “RhlR-agonistic selectivity” value on RhlR [1] is given as “displayed selectivity”.

As for `O=C(Cc1cccc(Cl)c1)NC1CCOC1=O` (stereo not drawn) [Compound C6], the “% RhlR activation” value at RhlR [3] was 26%. Also, at RhlR [1], the “RhlR-agonistic selectivity” value is “displayed selectivity”; the EC50 amounted to 5.5 µM.

As for `O=C(Cc1ccc(I)cc1)N[C@H]1CCOC1=O` [Compound C10], at QscR, the “% QscR inhibition” value is −79%. Besides, the “% LasR inhibition” value at LasR stood at 58%. For the same compound, the “Maximum RhlR inhibition” value on RhlR [2] (antagonism dose curves, highest concentrations tested) is recorded as “near complete RhlR inhibition”. Further, the “Inhibition (%) / % RhlR inhibition” value at RhlR [2] came out at 84%.

On to `O=C(Cc1ccccc1I)NC1CCOC1=O` (stereo not drawn) [Compound C12], for which the “% RhlR activation” value at RhlR [3] came out at 11%. Also, on RhlR [1], the “RhlR-agonistic selectivity” value is on record as “displayed selectivity”.

On to `CSc1cccc(CC(=O)N[C@H]2CCOC2=O)c1` [Compound E7], for which, at RhlR [1], the EC50 worked out at 6.6 µM.

With `O=C(Cc1ccc2ccccc2c1)NC1CCOC1=O` (stereo not drawn) [Compound E12], on QscR, the “% QscR inhibition” value worked out at 60%. In addition, the “% LasR inhibition” value on LasR was 81%. In addition, at RhlR [2], the “Inhibition (%) / % RhlR inhibition” value is given as 77%.

Regarding `O=C(COc1ccc(I)cc1)N[C@H]1CCOC1=O` [Compound E22], the “% QscR inhibition” value on QscR is 18%. Moreover, the “% LasR inhibition” value on LasR was −9%. In addition, at RhlR [4] (IC50 67.2 μM in P. aeruginosa vs 17.3 μM in E. coli), the “fold reduction in potency, P. aeruginosa vs E. coli” value is given as ~ 4 fold. Besides, the “% RhlR inhibition” value at RhlR [4] (P. aeruginosa reporter, compound at 100 μM against 30 μM BHL in the presence of 100 nM OdDHL, cells with 100 nM OdDHL alone set to 100% inhibition, error ±10%) came to 92%. Further, the “Inhibition (%) / % RhlR inhibition” value on RhlR [2] is on record as 74%.

For the compound `O=C(CCc1ccccc1)NC1CCOC1=O` (stereo not drawn) [Compound E30], on RhlR [1], the 50% effective concentration (EC50) amounted to 6.6 µM.
